From patent publication US20060263802A1 (priority 2003, published 2006) come the findings set out here.

Holding throughout (format): binding
Experiment [1] deals with human monoclonal antibody CRJA.
Experiment [2] concerns human monoclonal antibody CR57.
Experiment [3] deals with human monoclonal antibody CRJB.
In experiment [4] the test system is human monoclonal antibody CRJB. This is another data set of the same source.
In experiment [5] the test system is human monoclonal antibody CRJA. The source holds these as a separate data set.
The test system of experiment [6] is human monoclonal antibody CR57. This is another data set of the same source.

Regarding NPRLGMSCDIFTNSR, in experiment [1], the “Binding of CRJA (10 μg/ml) to looped/cyclic peptide (PEPSCAN-ELISA signal)” value is listed as 91. Also, the “Binding of CR57 (10 μg/ml) to looped/cyclic peptide (PEPSCAN-ELISA signal)” value in experiment [2] amounted to 78. Also, the “Binding of CRJB (10 μg/ml) to looped/cyclic peptide (PEPSCAN-ELISA signal)” value in experiment [3] was 101. For the same sequence, the “Binding of CRJB to linear peptide (PEPSCAN-ELISA signal)” value (“Binding of CRJB to linear peptide” below) in experiment [4] was found to be 113. The “Binding of CRJA to linear peptide (PEPSCAN-ELISA signal)” value (shortened to “Binding of CRJA to linear peptide”) in experiment [5] worked out at 82. Besides, the “Binding of CR57 to linear peptide (PEPSCAN-ELISA signal)” value (“Binding of CR57 to linear peptide” for short) in experiment [6] is recorded as 90.
For KESLVIISPSVADLD, in experiment [1], the “Binding of CRJA (10 μg/ml) to looped/cyclic peptide (PEPSCAN-ELISA signal)” value stood at 83. In experiment [2], the “Binding of CR57 (10 μg/ml) to looped/cyclic peptide (PEPSCAN-ELISA signal)” value was determined as 86. Besides, the “Binding of CRJB (10 μg/ml) to looped/cyclic peptide (PEPSCAN-ELISA signal)” value in experiment [3] is reported as 85. For the same sequence, the “Binding of CRJB to linear peptide” value in experiment [4] stood at 117. In experiment [5], the “Binding of CRJA to linear peptide” value was 123. The “Binding of CR57 to linear peptide” value in experiment [6] is listed as 86.
On to DQLVNLHDFRSDEIE, for which the “Binding of CRJA (10 μg/ml) to looped/cyclic peptide (PEPSCAN-ELISA)” value in experiment [1] was found to be 63. For the same sequence, in experiment [2], the “Binding of CR57 (10 μg/ml) to looped/cyclic peptide (PEPSCAN-ELISA)” value stood at 46. Further, in experiment [3], the “Binding of CRJB (10 μg/ml) to looped/cyclic peptide (PEPSCAN-ELISA)” value turned out to be 27. In addition, the “Binding of CRJB to linear peptide” value in experiment [4] was determined as 117. In experiment [5], the “Binding of CRJA to linear peptide” value worked out at 88. The “Binding of CR57 to linear peptide” value in experiment [6] amounted to 54.
LSCPNNLVVEDEGCT: in experiment [1], the “Binding of CRJA (10 μg/ml) to looped/cyclic peptide (PEPSCAN-ELISA signal)” value is 97. Moreover, the “Binding of CR57 (10 μg/ml) to looped/cyclic peptide (PEPSCAN-ELISA signal)” value in experiment [2] is on record as 72. Moreover, the “Binding of CRJB (10 μg/ml) to looped/cyclic peptide (PEPSCAN-ELISA signal)” value in experiment [3] is given as 74. The “Binding of CRJB to linear peptide” value in experiment [4] was 117. The “Binding of CRJA to linear peptide” value in experiment [5] stood at 90. The “Binding of CR57 to linear peptide” value in experiment [6] is reported as 69.
As for RASKGSETCGFVDER, in experiment [1], the “Binding of CRJA (10 μg/ml) to looped/cyclic peptide (PEPSCAN-ELISA)” value is listed as 100. The “Binding of CR57 (10 μg/ml) to looped/cyclic peptide (PEPSCAN-ELISA)” value in experiment [2] is 105. Besides, in experiment [3], the “Binding of CRJB (10 μg/ml) to looped/cyclic peptide (PEPSCAN-ELISA)” value turned out to be 90. Also, the “Binding of CRJB to linear peptide” value in experiment [4] turned out to be 110. For the same sequence, in experiment [5], the “Binding of CRJA to linear peptide” value came to 90. For the same sequence, the “Binding of CR57 to linear peptide” value in experiment [6] stood at 86.
As to PENPRLGMSCDIFTN, the “Binding of CRJA (10 μg/ml) to looped/cyclic peptide (PEPSCAN-ELISA signal)” value in experiment [1] turned out to be 83. For the same sequence, in experiment [2], the “Binding of CR57 (10 μg/ml) to looped/cyclic peptide (PEPSCAN-ELISA signal)” value turned out to be 116. Also, the “Binding of CRJB (10 μg/ml) to looped/cyclic peptide (PEPSCAN-ELISA signal)” value in experiment [3] was determined as 98. In experiment [4], the “Binding of CRJB to linear peptide” value is on record as 111. For the same sequence, the “Binding of CRJA to linear peptide” value in experiment [5] is reported as 94. In addition, in experiment [6], the “Binding of CR57 to linear peptide” value is listed as 83.
On to ERGLYKSLKGACKLK, for which the “Binding of CRJA (10 μg/ml) to looped/cyclic peptide (PEPSCAN-ELISA)” value in experiment [1] was found to be 104. The “Binding of CR57 (10 μg/ml) to looped/cyclic peptide (PEPSCAN-ELISA)” value in experiment [2] was found to be 100. Besides, the “Binding of CRJB (10 μg/ml) to looped/cyclic peptide (PEPSCAN-ELISA)” value in experiment [3] is on record as 72. Moreover, in experiment [4], the “Binding of CRJB to linear peptide” value amounted to 118. In addition, the “Binding of CRJA to linear peptide” value in experiment [5] amounted to 101. The “Binding of CR57 to linear peptide” value in experiment [6] was 90.
IILGPDGNVLIPEMQ: the “Binding of CRJA (10 μg/ml) to looped/cyclic peptide (PEPSCAN-ELISA)” value in experiment [1] is reported as 107. In experiment [2], the “Binding of CR57 (10 μg/ml) to looped/cyclic peptide (PEPSCAN-ELISA)” value is recorded as 99. Besides, the “Binding of CRJB (10 μg/ml) to looped/cyclic peptide (PEPSCAN-ELISA)” value in experiment [3] worked out at 83. In addition, the “Binding of CRJB to linear peptide” value in experiment [4] was 118. The “Binding of CRJA to linear peptide” value in experiment [5] is recorded as 80. Besides, the “Binding of CR57 to linear peptide” value in experiment [6] is given as 85.
Consider GNVLIPEMQSSLLQQ, for which the “Binding of CRJA (10 μg/ml) to looped/cyclic peptide (PEPSCAN-ELISA)” value in experiment [1] amounted to 78. In addition, the “Binding of CR57 (10 μg/ml) to looped/cyclic peptide (PEPSCAN-ELISA)” value in experiment [2] is reported as 99. The “Binding of CRJB (10 μg/ml) to looped/cyclic peptide (PEPSCAN-ELISA)” value in experiment [3] is reported as 103. In addition, the “Binding of CRJB to linear peptide” value in experiment [4] amounted to 120. Also, the “Binding of CRJA to linear peptide” value in experiment [5] was 85. Further, in experiment [6], the “Binding of CR57 to linear peptide” value amounted to 96.
As to TKESLVIISPSVADL, in experiment [1], the “Binding of CRJA (10 μg/ml) to looped/cyclic peptide (PEPSCAN-ELISA signal)” value turned out to be 88. Also, the “Binding of CR57 (10 μg/ml) to looped/cyclic peptide (PEPSCAN-ELISA signal)” value in experiment [2] is 99. For the same sequence, the “Binding of CRJB (10 μg/ml) to looped/cyclic peptide (PEPSCAN-ELISA signal)” value in experiment [3] amounted to 80. In addition, in experiment [4], the “Binding of CRJB to linear peptide” value is given as 112. The “Binding of CRJA to linear peptide” value in experiment [5] came to 102. For the same sequence, the “Binding of CR57 to linear peptide” value in experiment [6] is 86.
With WKMAGDPRYEESLHN, the “Binding of CRJA (10 μg/ml) to looped/cyclic peptide (PEPSCAN-ELISA signal)” value in experiment [1] is listed as 90. The “Binding of CR57 (10 μg/ml) to looped/cyclic peptide (PEPSCAN-ELISA signal)” value in experiment [2] turned out to be 96. The “Binding of CRJB (10 μg/ml) to looped/cyclic peptide (PEPSCAN-ELISA signal)” value in experiment [3] was found to be 77. The “Binding of CRJB to linear peptide” value in experiment [4] is recorded as 101. In addition, in experiment [5], the “Binding of CRJA to linear peptide” value came to 86. Besides, the “Binding of CR57 to linear peptide” value in experiment [6] was 69.
For the sequence YRWLRTVKTTKESLV, the “Binding of CRJA (10 μg/ml) to looped/cyclic peptide (PEPSCAN-ELISA signal)” value in experiment [1] is listed as 58. Also, in experiment [2], the “Binding of CR57 (10 μg/ml) to looped/cyclic peptide (PEPSCAN-ELISA signal)” value is 69. For the same sequence, the “Binding of CRJB (10 μg/ml) to looped/cyclic peptide (PEPSCAN-ELISA signal)” value in experiment [3] was determined as 70. Further, the “Binding of CRJB to linear peptide” value in experiment [4] worked out at 117. For the same sequence, the “Binding of CRJA to linear peptide” value in experiment [5] amounted to 68. In addition, the “Binding of CR57 to linear peptide” value in experiment [6] was 46.
ACRAAYNWKMAGDPR: in experiment [1], the “Binding of CRJA (10 μg/ml) to looped/cyclic peptide (PEPSCAN-ELISA signal)” value was 110. The “Binding of CR57 (10 μg/ml) to looped/cyclic peptide (PEPSCAN-ELISA signal)” value in experiment [2] was 138. In addition, the “Binding of CRJB (10 μg/ml) to looped/cyclic peptide (PEPSCAN-ELISA signal)” value in experiment [3] was 93. Moreover, the “Binding of CRJB to linear peptide” value in experiment [4] was determined as 116. Also, the “Binding of CRJA to linear peptide” value in experiment [5] was 93. Besides, in experiment [6], the “Binding of CR57 to linear peptide” value is 82.
Take TCTGVVTEAENYTNF: in experiment [1], the “Binding of CRJA (10 μg/ml) to looped/cyclic peptide (PEPSCAN-ELISA signal)” value is reported as 112. The “Binding of CR57 (10 μg/ml) to looped/cyclic peptide (PEPSCAN-ELISA signal)” value in experiment [2] is 107. Also, the “Binding of CRJB (10 μg/ml) to looped/cyclic peptide (PEPSCAN-ELISA signal)” value in experiment [3] was 93. Moreover, in experiment [4], the “Binding of CRJB to linear peptide” value was 112. The “Binding of CRJA to linear peptide” value in experiment [5] is reported as 96. For the same sequence, in experiment [6], the “Binding of CR57 to linear peptide” value was found to be 92.
In the case of DALESIMTTKSVSFR, in experiment [1], the “Binding of CRJA (10 μg/ml) to looped/cyclic peptide (PEPSCAN-ELISA)” value worked out at 110. Moreover, the “Binding of CR57 (10 μg/ml) to looped/cyclic peptide (PEPSCAN-ELISA)” value in experiment [2] was found to be 127. For the same sequence, in experiment [3], the “Binding of CRJB (10 μg/ml) to looped/cyclic peptide (PEPSCAN-ELISA)” value is reported as 127. Further, the “Binding of CRJB to linear peptide” value in experiment [4] was 120. Besides, the “Binding of CRJA to linear peptide” value in experiment [5] is 105. For the same sequence, in experiment [6], the “Binding of CR57 to linear peptide” value was determined as 104.
In the case of TTTFKRKHFRPTPDA, in experiment [1], the “Binding of CRJA (10 μg/ml) to looped/cyclic peptide (PEPSCAN-ELISA signal)” value is 93. Also, in experiment [2], the “Binding of CR57 (10 μg/ml) to looped/cyclic peptide (PEPSCAN-ELISA signal)” value was 90. For the same sequence, the “Binding of CRJB (10 μg/ml) to looped/cyclic peptide (PEPSCAN-ELISA signal)” value in experiment [3] came to 99. The “Binding of CRJB to linear peptide” value in experiment [4] turned out to be 108. The “Binding of CRJA to linear peptide” value in experiment [5] came out at 76. For the same sequence, in experiment [6], the “Binding of CR57 to linear peptide” value is 80.
For NFVGYVTTTFKRKHF, the “Binding of CRJA (10 μg/ml) to looped/cyclic peptide (PEPSCAN-ELISA signal)” value in experiment [1] is recorded as 83. The “Binding of CR57 (10 μg/ml) to looped/cyclic peptide (PEPSCAN-ELISA signal)” value in experiment [2] stood at 92. In addition, the “Binding of CRJB (10 μg/ml) to looped/cyclic peptide (PEPSCAN-ELISA signal)” value in experiment [3] came to 98. For the same sequence, the “Binding of CRJB to linear peptide” value in experiment [4] came to 107. Moreover, the “Binding of CRJA to linear peptide” value in experiment [5] turned out to be 88. Moreover, the “Binding of CR57 to linear peptide” value in experiment [6] is 65.
Regarding DLDPYDRSLHSRVFP, the “Binding of CRJA (10 μg/ml) to looped/cyclic peptide (PEPSCAN-ELISA signal)” value in experiment [1] is 92. In addition, the “Binding of CR57 (10 μg/ml) to looped/cyclic peptide (PEPSCAN-ELISA signal)” value in experiment [2] is given as 90. In experiment [3], the “Binding of CRJB (10 μg/ml) to looped/cyclic peptide (PEPSCAN-ELISA signal)” value is reported as 68. Besides, the “Binding of CRJB to linear peptide” value in experiment [4] was determined as 152. The “Binding of CRJA to linear peptide” value in experiment [5] was 107. In experiment [6], the “Binding of CR57 to linear peptide” value turned out to be 111.
